Assay results as given in US8399026B2, “Peptides isolated from spider venom, and uses thereof” (priority 2009, dated 2013).
Entries after “also recorded” stand apart in the source; their conditions may differ.

Columns and labels:
[1] = test system: spinal-ligated rats; type: in vivo, rat
Protocol: This study aimed to evaluate the analgesic indications of compound C using the Chung model of neuropathic pain in rats. This study was performed at PsychoGenics, Inc., headquartered at 765 Old Saw Mill River Road, Tarrytown, N.Y.
Male Sprague Dawley rats (100-125 g) from Harlan (Indianapolis, Ind.) were used in the study. Upon receipt, rats were assigned unique identification numbers and were group housed with 3 rats per cage in polycarbonate cages with micro-isolator filter tops. All rats were examined, handled, and weighed prior to initiation of the study to assure adequate health and suitability. During the course of the study, 12/12 light/dark cycles were maintained, with lights on at 7:00 am EST. The room temperature was maintained between 20 and 23° C. with a relative humidity maintained around 50%. Chow and water were provided ad libitum for the duration of the study.
All compounds were administered at a dose volume of 5 ml/kg, q.d. for 5 days (Days 17-21 post-surgery). Reference compound: Gabapentin (100 mg/kg; TRC, Lot No. 1-SWM-154-1) was dissolved in 0.5% carboxy-methylcellulose (CMC) in water and administered orally. Test Compound: Compound C (0.25, 0.625, and 1.25 mg/kg; Lot n/a) was dissolved in distilled H2O to a stock concentration (20×), divided into single-use aliquots, and frozen. On each test day, one aliquot was thawed and diluted 20-fold with PBS (pH 7.2), and used as stock for formulation of test doses. Compound C was administered subcutaneously.
Under general anesthesia with continuous inhalation of isoflurane, surgery was performed with aseptic procedures in surgery unit. The skin at the area of the lower lumber and sacral level of the rat was shaved and disinfected with betadine and alcohol. Sterile ophthalmic ointment was used to lubricate the eyes. Animals were observed continuously for the level of anesthesia, testing for the animal's reflex response to tail or paw pinch and closely monitoring the animal's breathing. A heating pad was used to maintain body temperature at 37° C. while the animals recovered from anesthesia. A left longitudinal incision at the level next to the vertebral column was made and the left paraspinal muscles were separated. The transverse process of L6 was removed and nearby connective tissue cleaned to expose L5 and L6 spinal nerves. After the nerves were isolated and clearly visualized, 4-0 silk threads were used to ligate the left L5. The muscles were sutured with 4-0 silk threads and the wound closed by staples. All rats received an analgesic (buprenorphine, 0.05 mg/kg, s.c.) immediately before and 6 hours after surgery. Each rat was monitored until awake and moving freely around the recovery chamber. Animals were then single-housed for the duration of the study. Rats were allowed to recover for 2 weeks after surgery prior to testing.
Withdrawal from a mechanical stimulus was measured by applying von Frey (VF) filaments of ascending bending force to the plantar surface of the hind paws (ipsilateral and contralateral). A positive response was defined as withdrawal from the von Frey filament. Confirmation of the paw withdrawal threshold (PWT) is tested by assessing the response to the filament above and below the withdrawal response.
Rats were brought to the experimental room and allowed to habituate in the room for one hour prior to testing, and acclimated to the observation chambers for 15 minutes prior to taking PWT measurements.
Pre-operative baseline testing: Prior to surgery, all rats were tested using the VF test.
Post-operative baseline testing: On Day 14 following surgery, baseline responses were taken from all surgically-operated rats, and an ipsilateral PWT greater than 4.5 g was used as an exclusion criterion (13 rats excluded). Rats were subsequently balanced and assigned to treatment groups (n=10 per group) based on their post-op PWT values. […]

[2] = test system: mouse embryonic stem cells derived cardiomyocytes (mES-CM); type: cell-based
[3] = baseline of group assigned to 100 mg/kg, mean ± SEM

Row | Compound | ipsilateral paw withdrawal threshold compared to vehicle, chronic ([1]; 100 mg/kg orally q.d. 5 days, Day 21, all time points) | ipsilateral paw withdrawal threshold compared to vehicle, acute ([1]; 100 mg/kg orally, Day 17, data collapsed across 1 and 3 hour time points) | time dependence of effect on ipsilateral paw withdrawal threshold, chronic ([1]; 100 mg/kg orally, Day 21, 1 hr. versus 3 hr. post-administration) | ipsilateral paw withdrawal threshold (PWT), summary ([1]; 100 mg/kg, acute or 5-day administration, 1 and 3 hours following administration) | Contralateral paw withdrawal threshold prior to drug administration [1, 3] | Ipsilateral paw withdrawal threshold prior to drug administration [1, 3] | signs of sedation or toxicity ([1]; during pretreatment or testing, gabapentin 100 mg/kg orally, compound C 0.25, 0.625, 1.25 mg/kg subcutaneously) | effect of positive control on action potential generation in cardiomyocytes [2]
1 | NCC1(CC(=O)O)CCCCC1 [Gabapentin] | significantly increased | significantly increased | significantly greater at 1 hr. compared to 3 hr. post-administration | significantly increased | 48.70 ± 5.83 | 2.94 ± 0.29 | not observed | –
2 | NC1=N[C@H](O)[C@H]2[C@H]3O[C@]4(O)O[C@@H]([C@@H](O)[C@@]2(N1)[C@@H]4O)[C@]3(O)CO [TTX, Tetrodotoxin] | – | – | – | – | – | – | – | only the higher dose inhibited action potential generation; also recorded: quite evident; also recorded: significant action
